Measurements reported in patent US20150031996A1, “SEMICONDUCTING POLYMER NANOPARTICLES AS PHOTOACOUSTIC MOLECULAR IMAGING PROBES” (The Board of Trustees of the Leland Stanford Junior …, priority 2013, published 2015).

Assay: Kinetic study of ROS-mediated degradation of IR775S (fluorescence at 800 nm)
Type: physicochemical
Conditions: presence of peroxynitrite (ONOO^−) and hypochlorite (ClO^−), 2 μM, 1×PBS pH=7.4
Method: FIGS. 26A and 26B illustrate a kinetic study of ROS-mediated degradation of 1R7755 by detecting its fluorescence decrease at 800 nm after addition of ROS.
FIG. 26B illustrates a time course of the fluorescence of 1R775S at 800 nm after addition of indicated ROS (FIG. 26B top: ONOO^−, ClO^−; FIG. 26B bottom: ^1O2 and H2O2) in 1×PBS (pH=7.4). [1R775]=1 μg/mL. [ROS]=2 μM.

CN1C(=CC=C2CCCC(C=CC3=[N+](C)c4ccccc4C3(C)C)=C2SCCC(=O)O)C(C)(C)c2ccccc21.[O-][Cl+3]([O-])([O-])[O-] [1R775S, 2-[4′-(β-carboxyethylthio)-7′-(1″,3″,3″-trimethylindolenine)-3′,5′-trimethyleneheptatrien-1-yl]-1,3,3-trimethylindolenium perchlorate]
degradation by ROS: nearly instant degradation
